This is an account of results in PubChem BioAssay AID192 (DTP/NCI, 2004).

“And” between values parts separate entries of the source, which are not always exact repeats. Equal entries are not always repeated. Inconclusive results and toxic doses are left out.

The test system of the assay is BDF1 mice, B16 melanoma ip, median survival T/C. The assay can be described thus: NCI In Vivo Anticancer Drug Screen. Data for tumor model B16 Melanoma (intraperitoneal) in B6D2F1 (BDF1) mice. The note with it: endpoint: median survival time, higher = longer survival. The procedure, abridged: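 Each result divides a survival or tumor-size measurement in the compound-treated group by the same measurement in the vehicle group.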

The mark [1] stands for this setting: dose: 100.0 mg/kg/injection, schedule: Q01DX009 (ip), vehicle: Klucel (hydroxypropylcellulose) (HPC).
Setting [2] is: dose: 200.0 mg/kg/injection, schedule: Q01DX009 (ip), vehicle: Klucel (hydroxypropylcellulose) (HPC).
Where [3] appears, read: dose: 25.0 mg/kg/injection, schedule: Q01DX009 (ip), vehicle: Klucel (hydroxypropylcellulose) (HPC).
[4] abbreviates: dose: 50.0 mg/kg/injection, schedule: Q01DX009 (ip), vehicle: Klucel (hydroxypropylcellulose) (HPC).
Where [5] appears, read: dose: 400.0 mg/kg/injection, schedule: Q01DX009 (ip), vehicle: Klucel (hydroxypropylcellulose) (HPC).
[6] abbreviates: dose: 1.0 mg/kg/injection, schedule: Q01DX009 (ip), vehicle: saline.
The mark [7] stands for this setting: dose: 2.0 mg/kg/injection, schedule: Q01DX009 (ip), vehicle: saline.
The mark [8] stands for this setting: dose: 6.25 mg/kg/injection, schedule: Q01DX009 (ip), vehicle: saline with Tween-80.
Where [9] appears, read: dose: 12.5 mg/kg/injection, schedule: Q01DX009 (ip), vehicle: saline with Tween-80.
The mark [10] stands for this setting: dose: 64.0 mg/kg/injection, schedule: Q01DX009 (ip), vehicle: Klucel (hydroxypropylcellulose) (HPC).
[11] abbreviates: dose: 128.0 mg/kg/injection, schedule: Q01DX009 (ip), vehicle: Klucel (hydroxypropylcellulose) (HPC).
Setting [12] is: dose: 256.0 mg/kg/injection, schedule: Q01DX009 (ip), vehicle: Klucel (hydroxypropylcellulose) (HPC).

For `Nc1ccccc1SC1CC(=O)N(c2ccccc2Cl)C1=O` (configuration not stated), the T/C is, setting by setting: under setting [1], 94 % of control; under setting [2], 86 % of control.
Take `Cc1ccc(N2C(=O)CC(Sc3ccccc3N)C2=O)cc1` (configuration not stated): the T/C under setting [3] was 97 % of control; the T/C under setting [4] is 91 % of control; the T/C under setting [1] was 86 % of control and 91 % of control.
Consider `CC(C)(O)c1cccc2c(C(C)(C)O)cccc12`, for which the T/C reads like this: under setting [1], 92 % of control; under setting [2], 114 % of control; under setting [5], 91 % of control.
Turning to `CCC(=O)OCC(=O)[C@]1(O)Cc2c(O)c3c(c(O)c2[C@@H](OC2CC(N)C(O)C(C)O2)C1)C(=O)c1c(OC)cccc1C3=O` (some centres not stated), the T/C runs as follows: (dose: 0.25 mg/kg/injection, schedule: Q01DX009 (ip), vehicle: saline) 188 % of control; (dose: 0.5 mg/kg/injection, schedule: Q01DX009 (ip), vehicle: saline) 175 % of control; under setting [6], 169 % of control and 195 % of control; under setting [7], 177 % of control and 260 % of control.
As for `O=C(Nc1ccccc1)OCC(CN1CCCCC1)OC(=O)Nc1ccccc1` (configuration not stated), the T/C is, setting by setting: (dose: 50.0 mg/kg/injection, schedule: Q04DX003 (ip), vehicle: saline with Tween-80) 104 % of control; (dose: 100.0 mg/kg/injection, schedule: Q04DX003 (ip), vehicle: saline with Tween-80) 102 % of control; (dose: 200.0 mg/kg/injection, schedule: Q04DX003 (ip), vehicle: saline with Tween-80) 100 % of control.
For `O=[N+]([O-])c1ccc(O)c(N=Cc2ccc(C=Nc3cc([N+](=O)[O-])ccc3O)cc2)c1`, the T/C runs as follows: (dose: 75.0 mg/kg/injection, schedule: Q01DX009 (ip), vehicle: Klucel (hydroxypropylcellulose) (HPC)) 89 % of control; (dose: 150.0 mg/kg/injection, schedule: Q01DX009 (ip), vehicle: Klucel (hydroxypropylcellulose) (HPC)) 93 % of control.
As for `C=CCOCC(O)CO` (configuration not stated), the T/C (dose: 100.0 mg/kg/injection, schedule: Q04DX003 (ip), vehicle: saline) is 109 % of control; the T/C (dose: 200.0 mg/kg/injection, schedule: Q04DX003 (ip), vehicle: saline) was 93 % of control; the T/C (dose: 400.0 mg/kg/injection, schedule: Q04DX003 (ip), vehicle: saline) was 102 % of control.
As to `c1ccc2c(CC3=NCCN3)cccc2c1`, the T/C was 102 % of control under setting [8]; 100 % of control under setting [9]; 102 % of control (dose: 25.0 mg/kg/injection, schedule: Q01DX009 (ip), vehicle: saline with Tween-80).
Consider `COc1ccccc1NC(=O)Oc1ccc(OCc2ccccc2)cc1`, for which the T/C is, setting by setting: (dose: 100.0 mg/kg/injection, schedule: Q01DX009 (ip), vehicle: saline with Tween-80) 105 % of control; (dose: 200.0 mg/kg/injection, schedule: Q01DX009 (ip), vehicle: saline with Tween-80) 97 % of control; (dose: 400.0 mg/kg/injection, schedule: Q01DX009 (ip), vehicle: saline with Tween-80) 92 % of control.
As for `N#Cc1ccc(C(=O)C=C(C(F)(F)F)C(F)(F)F)cc1`, the T/C reads like this: (dose: 1.56 mg/kg/injection, schedule: Q01DX009 (ip), vehicle: saline with Tween-80) 99 % of control; (dose: 3.12 mg/kg/injection, schedule: Q01DX009 (ip), vehicle: saline with Tween-80) 100 % of control; under setting [8], 99 % of control; under setting [9], 93 % of control.
Take `CC1(C)Oc2c(ccc(O)c2CN2CCOCC2)C2=C1CCCC2`: the T/C is 96 % of control under setting [10], 96 % of control under setting [11] and 101 % of control under setting [12].
As to `C1=Cc2ccccc2/C1=C/c1ccc(/C=C2\C=Cc3ccccc32)cc1`, the T/C is, setting by setting: (dose: 100.0 mg/kg/injection, schedule: Q04DX003 (ip), vehicle: Klucel (hydroxypropylcellulose) (HPC)) 98 % of control; (dose: 200.0 mg/kg/injection, schedule: Q04DX003 (ip), vehicle: Klucel (hydroxypropylcellulose) (HPC)) 102 % of control; (dose: 400.0 mg/kg/injection, schedule: Q04DX003 (ip), vehicle: Klucel (hydroxypropylcellulose) (HPC)) 92 % of control.
Consider `Cc1cc(C)c(NC(=O)Nc2ccccc2)c(C)c1`, for which the T/C is 94 % of control under setting [3], 94 % of control under setting [4] and 108 % of control under setting [1].
As for `Cc1n(CC(C)C)c2c([n+]1C)C(=O)c1ccccc1C2=O`, the T/C by setting is: under setting [6], 90 % of control; under setting [7], 87 % of control.
With `C[n+]1c(/C=C\C=C\N2CCCCC2)sc2ccccc21`, the T/C by setting is: (dose: 0.06 mg/kg/injection, schedule: Q01DX009 (ip), vehicle: Klucel (hydroxypropylcellulose) (HPC)) 101 % of control; (dose: 0.12 mg/kg/injection, schedule: Q01DX009 (ip), vehicle: Klucel (hydroxypropylcellulose) (HPC)) 105 % of control; (dose: 0.25 mg/kg/injection, schedule: Q01DX009 (ip), vehicle: Klucel (hydroxypropylcellulose) (HPC)) 101 % of control; (dose: 0.5 mg/kg/injection, schedule: Q01DX009 (ip), vehicle: Klucel (hydroxypropylcellulose) (HPC)) 95 % of control; (dose: 0.63 mg/kg/injection, schedule: Q01DX009 (ip), vehicle: Klucel (hydroxypropylcellulose) (HPC)) 103 % of control; (dose: 1.0 mg/kg/injection, schedule: Q01DX009 (ip), vehicle: Klucel (hydroxypropylcellulose) (HPC)) 101 % of control. In addition, the T/C reads like this: (dose: 1.25 mg/kg/injection, schedule: Q01DX009 (ip), vehicle: Klucel (hydroxypropylcellulose) (HPC)) 101 % of control; (dose: 2.0 mg/kg/injection, schedule: Q01DX009 (ip), vehicle: Klucel (hydroxypropylcellulose) (HPC)) 105 % of control; (dose: 2.5 mg/kg/injection, schedule: Q01DX009 (ip), vehicle: Klucel (hydroxypropylcellulose) (HPC)) 109 % of control.
Take `C[C@]12CCC(=O)C=C1[C@@H](F)C[C@@H]1[C@@H]2[C@@H](O)C[C@@]2(C)[C@H]1CC[C@]2(O)C(=O)CO`: the T/C (dose: 25.0 mg/kg/injection, schedule: Q01DX009 (sc), vehicle: steriod suspending solution) is 95 % of control; the T/C (dose: 50.0 mg/kg/injection, schedule: Q01DX009 (sc), vehicle: steriod suspending solution) was 97 % of control; the T/C (dose: 100.0 mg/kg/injection, schedule: Q01DX009 (sc), vehicle: steriod suspending solution) is 101 % of control.
`CCCCNC(=O)Nc1cccc(C)c1C`: the T/C was 88 % of control under setting [1] and 94 % of control under setting [5].
Consider `COc1ccc2cc1Oc1ccc(cc1)C[C@H]1c3cc(c(OC)cc3CCN1C)Oc1c(O)c(OC)cc3c1[C@H](C2)N(C)CC3`, for which the T/C reads like this: (dose: 25.0 mg/kg/injection, schedule: Q01DX009 (ip), vehicle: acid diluted with saline) 116 % of control; (dose: 50.0 mg/kg/injection, schedule: Q01DX009 (ip), vehicle: acid diluted with saline) 105 % of control.
Turning to `Cc1cc2oc(=O)c3c(c2c(O)c1CN1CCOCC1)CCCC3`, the T/C by setting is: under setting [10], 103 % of control; under setting [11], 98 % of control; under setting [12], 108 % of control.
Turning to `O=C(O)CN(CCN(CC(=O)O)CC(=O)O)CCN(CC(=O)O)CC(=O)O`, the T/C is 94 % of control (dose: 3.12 mg/kg/injection, schedule: Q01DX009 (ip), vehicle: Klucel (hydroxypropylcellulose) (HPC)); 93 % of control and 94 % of control (dose: 6.25 mg/kg/injection, schedule: Q01DX009 (ip), vehicle: Klucel (hydroxypropylcellulose) (HPC)); 102 % of control (dose: 12.5 mg/kg/injection, schedule: Q01DX009 (ip), vehicle: Klucel (hydroxypropylcellulose) (HPC)); 96 % of control under setting [3]; 88 % of control under setting [4]; 92 % of control under setting [2].
For the compound `CSc1ncnc2c1ncn2C1OC(CO)C(O)C1O` (configuration not stated), the T/C was 95 % of control (dose: 2.0 mg/kg/injection, schedule: Q01DX009 (ip), vehicle: saline sonified); 88 % of control (dose: 4.0 mg/kg/injection, schedule: Q01DX009 (ip), vehicle: saline sonified); 100 % of control (dose: 7.5 mg/kg/injection, schedule: Q01DX009 (ip), vehicle: saline with Tween-80); 86 % of control (dose: 8.0 mg/kg/injection, schedule: Q01DX009 (ip), vehicle: saline sonified); 97 % of control (dose: 15.0 mg/kg/injection, schedule: Q01DX009 (ip), vehicle: saline with Tween-80); 95 % of control (dose: 16.0 mg/kg/injection, schedule: Q01DX009 (ip), vehicle: saline sonified).
